Reference: patent US20070037828A1, “Pyrazolopyrimidines” (priority 2003, published 2007)

Assay: logP determination through HPLC (EEC directive 79/831 Annex V. A8)
Type: physicochemical
Settings: not given
Work on `CCC(C)Nc1c(-c2cc(Cl)sc2Cl)c(Cl)nc2c(C#N)cnn12` (stereo not shown) [Example 10] yielded a logP of 4.82. For `CC1CCN(c2c(-c3ncncc3F)c(Cl)nc3c(C#N)cnn23)CC1` [Example 63], the logP was 3.20. For `N#Cc1cnn2c(NCC(F)(F)F)c(-c3cc(Cl)sc3Cl)c(Cl)nc12` [Example 30], the logP was 4.06. `COC(=O)c1cnn2c(NC(C)C(C)(C)C)c(-c3ncncc3F)c(Cl)nc12` (stereo not shown) [Example 64] gave a logP of 3.15. Compound `CC(Nc1c(-c2ncncc2Cl)c(Cl)nc2c(C#N)cnn12)C(C)(C)C` (stereo not shown) [Example 3] has a logP of 3.54. With `CC(Nc1c(-c2ncncc2Cl)c(Cl)nc2c(C=O)cnn12)C(C)(C)C` (stereo not shown) [Example 62] the logP was 3.12. In the case of `CC(Nc1c(-c2ncncc2F)c(Cl)nc2c(C#N)cnn12)C(F)(F)F` (stereo not shown) [Example 58], the logP is reported as 2.65. For `CC1CN(c2c(-c3cc(Cl)sc3Cl)c(Cl)nc3c(C#N)cnn23)CC(C)O1` (stereo not shown) [Example 27], the logP was 4.72. Work on `CC(C)CNc1c(-c2cc(Cl)sc2Cl)c(Cl)nc2c(C#N)cnn12` [Example 9] yielded a logP of 4.82. For `CN(CCC#N)c1c(-c2cc(Cl)sc2Cl)c(Cl)nc2c(C#N)cnn12` [Example 19], the logP was 3.90. Work on `CC(C)C(C)Nc1c(-c2ncncc2Cl)c(Cl)nc2c(C#N)cnn12` (stereo not shown) [Example 4] yielded a logP of 3.13. With `CC(Nc1c(-c2ncncc2F)c(Cl)nc2c(C#N)cnn12)C(C)(C)C` (stereo not shown) [Example 56] the logP was 3.29. Work on `CC(C)C(C)Nc1c(-c2ncncc2F)c(Cl)nc2ccnn12` (stereo not shown) [Example 61] yielded a logP of 2.98. In the case of `N#Cc1cnn2c(N3CCOCC3)c(-c3cc(Cl)sc3Cl)c(Cl)nc12` [Example 28], the logP is reported as 3.85. Compound `COCCNc1c(-c2cc(Cl)sc2Cl)c(Cl)nc2c(C#N)cnn12` [Example 17] has a logP of 3.90. `CC(C)C(C)Nc1c(-c2cc(Cl)sc2Cl)c(Cl)nc2c(C#N)cnn12` (stereo not shown) [Example 24] showed a logP of 5.19. Work on `CC(Nc1c(-c2ncncc2F)c(Cl)nc2c(Cl)cnn12)C(C)(C)C` (stereo not shown) [Example 59] yielded a logP of 4.11. With `N#Cc1cnn2c(N3CCCCC3)c(-c3cc(Cl)sc3Cl)c(Cl)nc12` [Example 23] the logP was 6.19. For `CCCN(CC1CC1)c1c(-c2cc(Cl)sc2Cl)c(Cl)nc2c(C#N)cnn12` [Example 20], the logP was 5.78. Work on `CC(Nc1c(-c2ncncc2Cl)c(Cl)nc2c(Cl)cnn12)C(C)(C)C` (stereo not shown) [Example 5] yielded a logP of 4.36. With `COCCN(C)c1c(-c2cc(Cl)sc2Cl)c(Cl)nc2c(C#N)cnn12` [Example 18] the logP was 4.32. For `CC(Nc1c(-c2cc(Cl)sc2Cl)c(Cl)nc2c(C#N)cnn12)C(F)(F)F` (single isomer, unassigned) [Example 31], the logP was 4.46. In the case of `CC(Nc1c(-c2ncncc2F)c(Cl)nc2ccnn12)C(C)(C)C` (stereo not shown) [Example 60], the logP is reported as 3.42. For `N#Cc1cnn2c(N3CCC(C(F)(F)F)CC3)c(-c3ccsc3)c(Cl)nc12` [Example 53], the logP was 4.03. Work on `N#Cc1cnn2c(N3CCC(F)(F)CC3)c(-c3ccsc3)c(Cl)nc12` [Example 36] yielded a logP of 3.61. Work on `CC(C)Nc1c(-c2cc(Cl)sc2Cl)c(Cl)nc2c(C#N)cnn12` [Example 11] yielded a logP of 4.41. Work on `N#Cc1cnn2c(N3CCCC3)c(-c3cc(Cl)sc3Cl)c(Cl)nc12` [Example 21] yielded a logP of 4.61. For `CC1CCCN1c1c(-c2ncncc2Cl)c(Cl)nc2c(C=O)cnn12` (stereo not shown) [Example 54], the logP was 2.44. In the case of `CC(Nc1c(-c2ncncc2Cl)c(Cl)nc2c(C=O)cnn12)C(F)(F)F` (single isomer, unassigned) [Example 55], the logP is reported as 2.46. `CC(C)CC(C)Nc1c(-c2cc(Cl)sc2Cl)c(Cl)nc2c(C#N)cnn12` (stereo not shown) [Example 29] gave a logP of 5.59. With `CC(C)C(C)Nc1c(-c2ncncc2F)c(Cl)nc2c(C#N)cnn12` (stereo not shown) [Example 57] the logP was 2.92. `CC(C)CN(C)c1c(-c2cc(Cl)sc2Cl)c(Cl)nc2c(C#N)cnn12` [Example 12] showed a logP of 5.31. `CC(C)(C)CNc1c(-c2cc(Cl)sc2Cl)c(Cl)nc2c(C#N)cnn12` [Example 15] showed a logP of 5.31.

Same assay, conditions: HPLC, gradient method, acetonitrile/0.1% aqueous phosphoric acid
`N#Cc1cnn2c(Cl)c(-c3ncccc3C(F)(F)F)c(Cl)nc12` [Example 65, 3-cyano-5,7-dichloro-6-(3-trifluoromethyl-pyridin-2-yl)-pyrazolo-[1,5-a]pyrimidine] showed a chromatographic logP of 2.68. Compound `N#Cc1cnn2c(NC3CCCC3)c(-c3cc(Cl)sc3Cl)c(Cl)nc12` [Example 16] has a logP of 5.03. `CC(C)CN(C)c1c(-c2ccsc2)c(Cl)nc2c(C#N)cnn12` [Example 40] gave a logP of 4.13. `COCCN(C)c1c(-c2ccsc2)c(Cl)nc2c(C#N)cnn12` [Example 51] showed a logP of 3.17. In the case of `CC1CCN(c2c(-c3ncncc3Cl)c(Cl)nc3c(C=O)cnn23)CC1` [Example 74, 5-chloro-6-(5-chloro-pyrimidin-4-yl)-3-formyl-7-(4-methyl-piperidin-1-yl)-pyrazolo[1,5-a]-pyrimidine], the chromatographic logP is reported as 3.04. With `C=Cc1cnn2c(N3CCC(C)CC3)c(-c3ncncc3Cl)c(Cl)nc12` [Example 75] the chromatographic logP was 4.7. Work on `CCC(C)Nc1c(-c2ccsc2)c(Cl)nc2c(C#N)cnn12` (stereo not shown) [Example 38] yielded a logP of 3.74. `N#Cc1cnn2c(N3CCCC3)c(-c3ccsc3)c(Cl)nc12` [Example 41] showed a logP of 3.53. `CC1CN(c2c(-c3ccsc3)c(Cl)nc3c(C#N)cnn23)CC(C)O1` (stereo not shown) [Example 48] gave a logP of 3.53. With `CC1CCN(c2c(-c3ccsc3)c(Cl)nc3c(C#N)cnn23)CC1` [Example 43] the logP was 4.41. Work on `CC1CCCCN1c1c(-c2ccsc2)c(Cl)nc2c(C#N)cnn12` (stereo not shown) [Example 42] yielded a logP of 4.27. `N#Cc1cnn2c(N3CCCCC3)c(-c3ccsc3)c(Cl)nc12` [Example 49] gave a logP of 3.58. `N#Cc1cnn2c(NCC(F)(F)F)c(-c3ccsc3)c(Cl)nc12` [Example 8] showed a logP of 3.21. In the case of `N#Cc1cnn2c(NC3CCCC3)c(-c3ccsc3)c(Cl)nc12` [Example 33], the logP is reported as 3.00. Compound `CCCN(CC1CC1)c1c(-c2ccsc2)c(Cl)nc2c(C#N)cnn12` [Example 47] has a logP of 4.51. With `N#Cc1cnn2c(N3CCOCC3)c(-c3ccsc3)c(Cl)nc12` [Example 44] the logP was 2.90. With `CC(C)CC(C)Nc1c(-c2ccsc2)c(Cl)nc2c(C#N)cnn12` (stereo not shown) [Example 6] the logP was 4.46. `COCCNc1c(-c2ccsc2)c(Cl)nc2c(C#N)cnn12` [Example 45] gave a logP of 2.94. `N#Cc1cnn2c(O)c(-c3ncccc3C(F)(F)F)c(O)nc12` [Example 68, 3-cyano-6-(3-trifluoromethyl-pyridin-2-yl)-pyrazolo[1,5-a]pyrimidin-5,7-diol] gave a chromatographic logP of 0.29. With `CCN(CCC#N)c1c(-c2ccsc2)c(Cl)nc2c(C#N)cnn12` [Example 52] the logP was 2.98. Compound `CC(C)(C)CNc1c(-c2ccsc2)c(Cl)nc2c(C#N)cnn12` [Example 32] has a logP of 4.18. For `CC(C)CNc1c(-c2ccsc2)c(Cl)nc2c(C#N)cnn12` [Example 37], the logP was 3.78. Work on `CC(Nc1c(-c2ccsc2)c(Cl)nc2c(C#N)cnn12)C(F)(F)F` (stereo not shown) [Example 7] yielded a logP of 3.53. Compound `CC(C)C(C)Nc1c(-c2ccsc2)c(Cl)nc2c(C#N)cnn12` (stereo not shown) [Example 34] has a logP of 4.08. `CC(C)Nc1c(-c2ccsc2)c(Cl)nc2c(C#N)cnn12` [Example 39] gave a logP of 3.37.
